Laboratory results: article PMC10914731, “Homo-BacPROTAC-induced degradation of ClpC1 as a strategy against drug-resistant mycobacteria” (Nature Communications, 2024)
Values after ≈ are worked out from the molar mass of the structure shown. Values joined by “and” are separate entries in the source; they are usually repeats but may differ in a detail not shown here. Equal entries are not always repeated. Where two headings read alike, the source gives them in different places. Where a SMILES comes first, the peptide text is derived from it. [ ]: non-standard residue; d: D form. Trp(1-(1,1-Me2-allyl)) = C=CC(C)(C)n1cc(C[C@H](N)C(=O)O)c2ccccc21; Ala(3R-Me,3-isobutenyl) = CC(C)=C[C@@H](C)[C@H](N)C(=O)O; NMeLeu(5-OH,4R) = CN[C@@H](C[C@@H](C)CO)C(=O)O; Phe(βR-OMe) = CO[C@H](c1ccccc1)[C@H](N)C(=O)O; NMeL = CN[C@@H](CC(C)C)C(=O)O

Legend:
[1] = biological target: ClpC1 NTD protein (M. tuberculosis) (Mycobacterium tuberculosis, UniProt P9WPC9); assay: biochemical; assay type: binding
Sequence of ClpC1 NTD protein (M. tuberculosis) (P9WPC9 1-156, looked up, natural form): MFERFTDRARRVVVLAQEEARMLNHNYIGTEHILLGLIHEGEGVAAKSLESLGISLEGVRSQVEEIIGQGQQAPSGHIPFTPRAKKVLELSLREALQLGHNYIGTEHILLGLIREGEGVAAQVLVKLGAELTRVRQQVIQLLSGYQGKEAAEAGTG

[2] = assay type: in vitro ADME, Mice; details: for Microsomal Stability Mice: clearance in microsomes
Outline: (§1)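 Read-out: parent loss by HPLC-MS/MS, first-order fit, half-life scaled to %Qh (well-stirred liver model). Conditions: 1 µmol/l cpd, 0.5 mg/ml microsomes, 100 mM Tris-HCl pH 7.5, 6.5 mM MgCl2, 1 mM NADPH, 37 °C; acetonitrile stop at multiple times.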

[3] = assay type: in vitro ADME, Rat; details: for Microsomal Stability Rat: clearance in microsomes
Outline: as §1

[4] = Microsomal stability, human; assay type: in vitro ADME; details: for Microsomal Stability Human: clearance in microsomes
Outline: as §1

[5] = system: M. tuberculosis H37Rv (ATCC 27294); assay: microbe, parasite or virus in culture; assay type: cell-based
Msm 607 = assay: microbe, parasite or virus in culture; assay type: cell-based; details: for Msm 607 MIC: single determinations
[6] = system: Mtb H37Rv in THP-1 macrophages; assay: Intracellular MIC assay in THP-1 macrophages; assay type: cell-based, Mycobacterium tuberculosis; design: Emax: unit not given here
in vitro = details: human
Outline: (§2)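 Values are bidirectional Caco-2 apparent permeabilities, P(A−B) and P(B−A), given in 10^-6 cm s-1. The efflux ratio divides P(B−A) by P(A−B), and intrinsic permeability averages the two directions.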

Caco-2 monolayers = assay: in vitro; details: human, Caco-2
Outline: as §2

[7] = Hepatocyte stability, mice; assay type: in vitro ADME; details: mouse, pH 7.4
Outline: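 1 µM cpd (DMSO <0.05% final), cryopreserved hepatocytes ~1e6 cells/mL, 50% serum, pH 7.4, 37 °C/5–10% CO2; up to 6 h, 6 timepoints; ACN quench, HPLC-MS/MS; t1/2 → CL via well-stirred model, % Qh.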

[8] = assay type: in vitro ADME, Rat; details: rat, pH 7.4
[9] = assay type: in vitro ADME, Human; details: human, pH 7.4
[10] = biological target: His6-tagged ClpC1-NTD substrate, M. smegmatis ClpC1P1P2 (UniProt A0R574+P9WPC9); assay: biochemical; assay type: biochemical; details: for DC50: Msm; for % Response / ClpC1-NTD peak area: Figure 4a source data, well replicates
Sequence of His6-tagged ClpC1-NTD substrate, M. smegmatis ClpC1P1P2 (P9WPC9 1-156, looked up, natural form): as above
Sequence of His6-tagged ClpC1-NTD substrate, M. smegmatis ClpC1P1P2 (A0R574 whole entry): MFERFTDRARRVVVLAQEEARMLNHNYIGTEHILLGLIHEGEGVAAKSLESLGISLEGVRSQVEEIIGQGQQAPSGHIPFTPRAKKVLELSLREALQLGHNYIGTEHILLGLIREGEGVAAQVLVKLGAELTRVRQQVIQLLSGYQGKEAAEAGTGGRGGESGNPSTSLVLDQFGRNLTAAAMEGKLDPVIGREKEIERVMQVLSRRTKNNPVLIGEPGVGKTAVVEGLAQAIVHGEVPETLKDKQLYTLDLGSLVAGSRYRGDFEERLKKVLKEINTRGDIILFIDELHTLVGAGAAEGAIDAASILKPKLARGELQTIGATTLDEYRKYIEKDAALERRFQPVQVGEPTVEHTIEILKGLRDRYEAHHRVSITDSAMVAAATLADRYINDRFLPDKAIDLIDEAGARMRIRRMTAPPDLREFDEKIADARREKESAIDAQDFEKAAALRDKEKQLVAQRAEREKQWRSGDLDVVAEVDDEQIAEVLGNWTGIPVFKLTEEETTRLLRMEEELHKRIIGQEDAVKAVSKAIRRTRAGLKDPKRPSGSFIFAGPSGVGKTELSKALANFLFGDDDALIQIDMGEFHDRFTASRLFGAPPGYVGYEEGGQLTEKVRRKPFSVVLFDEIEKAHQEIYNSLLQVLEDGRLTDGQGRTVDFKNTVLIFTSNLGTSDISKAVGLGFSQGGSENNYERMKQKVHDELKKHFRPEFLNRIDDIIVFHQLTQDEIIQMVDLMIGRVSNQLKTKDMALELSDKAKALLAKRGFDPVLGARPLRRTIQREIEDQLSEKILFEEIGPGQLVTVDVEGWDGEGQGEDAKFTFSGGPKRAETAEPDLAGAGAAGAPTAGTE

[11] = biological target: ClpC1-NTD substrate, M. tuberculosis ClpC1P1P2 (Mycobacterium tuberculosis, UniProt P9WPC9); assay: biochemical; assay type: biochemical; details: Mtb
Sequence of ClpC1-NTD substrate, M. tuberculosis ClpC1P1P2 (P9WPC5 whole entry): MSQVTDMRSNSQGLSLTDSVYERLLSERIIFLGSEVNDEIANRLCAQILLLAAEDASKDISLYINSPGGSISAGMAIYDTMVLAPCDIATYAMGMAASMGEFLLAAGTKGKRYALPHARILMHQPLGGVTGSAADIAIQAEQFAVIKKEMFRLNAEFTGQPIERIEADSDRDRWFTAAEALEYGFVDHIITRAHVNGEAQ
Sequence of ClpC1-NTD substrate, M. tuberculosis ClpC1P1P2 (P9WPC9 whole entry): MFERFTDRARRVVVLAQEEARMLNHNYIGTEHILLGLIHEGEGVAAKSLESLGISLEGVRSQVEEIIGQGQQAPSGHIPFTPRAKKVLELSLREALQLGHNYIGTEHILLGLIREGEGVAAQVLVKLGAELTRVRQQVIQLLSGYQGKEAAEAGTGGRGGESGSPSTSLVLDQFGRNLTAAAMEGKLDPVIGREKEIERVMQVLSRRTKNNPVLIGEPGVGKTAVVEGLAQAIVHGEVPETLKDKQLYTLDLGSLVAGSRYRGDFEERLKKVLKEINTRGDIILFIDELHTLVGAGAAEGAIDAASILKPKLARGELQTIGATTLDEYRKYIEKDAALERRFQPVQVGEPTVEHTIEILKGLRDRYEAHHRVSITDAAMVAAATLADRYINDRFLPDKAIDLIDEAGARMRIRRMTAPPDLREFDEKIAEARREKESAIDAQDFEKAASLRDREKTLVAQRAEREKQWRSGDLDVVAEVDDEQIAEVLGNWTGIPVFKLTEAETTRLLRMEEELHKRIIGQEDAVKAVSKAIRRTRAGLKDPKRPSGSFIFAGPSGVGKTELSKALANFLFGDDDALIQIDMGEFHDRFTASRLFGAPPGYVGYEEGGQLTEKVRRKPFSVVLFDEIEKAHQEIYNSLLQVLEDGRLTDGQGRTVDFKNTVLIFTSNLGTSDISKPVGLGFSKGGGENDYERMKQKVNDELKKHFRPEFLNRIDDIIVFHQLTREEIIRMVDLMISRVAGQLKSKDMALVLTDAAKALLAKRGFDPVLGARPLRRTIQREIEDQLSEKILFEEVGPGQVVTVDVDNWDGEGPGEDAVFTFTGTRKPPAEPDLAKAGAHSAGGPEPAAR
Sequence of ClpC1-NTD substrate, M. tuberculosis ClpC1P1P2 (P9WPC3 whole entry, further chain): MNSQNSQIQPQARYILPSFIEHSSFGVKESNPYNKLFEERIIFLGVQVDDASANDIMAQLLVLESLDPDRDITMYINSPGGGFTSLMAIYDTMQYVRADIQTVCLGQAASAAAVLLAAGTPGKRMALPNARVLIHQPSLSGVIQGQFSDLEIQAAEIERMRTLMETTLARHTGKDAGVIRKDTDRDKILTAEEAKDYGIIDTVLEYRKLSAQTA

[12] = biological target: endogenous ClpC1 in Msm #607 cells (Mycolicibacterium smegmatis, UniProt A0R574); assay type: cell-based, M. smegmatis
Sequence of endogenous ClpC1 in Msm #607 cells (A0R574 whole entry): as the sequence (A0R574 whole entry) above

[13] = SPR (Supplementary Table 1), read-out: KD ClpC1-NTD Mean ± SD
[14] = SPR, single independent measurements, read-out: KD ClpC1-NTD
[15] = Mycobacterium tuberculosis, Mtb H37Rv (Supplementary Table 2), read-out: MIC Mtb
[16] = Mycobacterium tuberculosis, single determinations, read-out: Mtb MIC
[17] = single determinations, read-out: Mtb MIC
[18] = Mycolicibacterium smegmatis, 607, read-out: MIC Msm 607
[19] = Mycolicibacterium smegmatis, 607, read-out: Msm 607 MIC, single determinations
[20] = mean of the measurements, read-out: DC50, Mean

CO[C@H](c1ccccc1)[C@@H]1NC(=O)[C@H](C)NC(=O)[C@H](C[C@@H](C)CO)N(C)C(=O)[C@H](Cc2cn(Cc3cn(CCOCCOCCOCCn4cc(Cn5cc(C[C@@H]6NC(=O)[C@H](C(C)C)NC(=O)[C@H](CC(C)C)N(C)C(=O)[C@H](C(C)C)NC(=O)[C@H]([C@H](OC)c7ccccc7)NC(=O)[C@H](C)NC(=O)[C@H](C[C@@H](C)CO)N(C)C6=O)c6ccccc65)nn4)nn3)c3ccccc23)NC(=O)[C@H](C(C)C)NC(=O)[C@H](CC(C)C)N(C)C(=O)[C@H](C(C)C)NC1=O [Compound 7]
Kd [1, 13]: 0.46 ± 0.05 nM
koff ([1]; SPR dissociation rate constant, read-out: koff ClpC1-NTD Mean ± SD): 0.001 s⁻¹
koff ClpC1-NTD ([1]; SPR, single independent measurements): 0.001 s⁻¹ and 0.0008 s⁻¹ and 0.0006 s⁻¹
Kd [1, 14]: 0.473 nM and 0.459 nM and 0.508 nM and 0.398 nM
koff ([1]; SPR, single independent measurements, read-out: koff ClpC1-NTD): 0.001 s⁻¹
Microsomal Stability Mouse QH [2]: 58.9% and 48.2%
Microsomal Stability Mice [2]: 53 %Qh
Microsomal Stability Rat QH [3]: 41.7% and 36.7%
Microsomal Stability Rat [3]: 40 %Qh
Microsomal Stability Human QH [4]: > 88.4% and 86.5%
Microsomal Stability Human [4]: 88 %Qh
MIC [5, 15]: 0.1 µM (≈ 0.213 µg/mL)
MIC [5, 16]: 0.098 µM (≈ 0.208 µg/mL)
MIC [5, 17]: 0.156 µM (≈ 0.332 µg/mL)
MIC (Msm 607; [18]): 1.4 ± 0.2 µM (≈ 2.98 µg/mL)
MIC (Msm 607; [19]): 1.56 µM (≈ 3.32 µg/mL)
Msm 607 MIC (Msm 607): 1.250 µM
Emax [6]: 1.22
intracellular viable mycobacteria ([6]; 0.19µM, Day 4, well replicates): 5.34 log10 cfu/ml
intracellular viable mycobacteria ([6]; 0.19µM, Day 7, well replicates): 5.68 log10 cfu/ml
intracellular viable mycobacteria ([6]; 0.781µM, Day 4, well replicates): 4.98 log10 cfu/ml
intracellular viable mycobacteria ([6]; 0.781µM, Day 7, well replicates): 4.98 log10 cfu/ml
intracellular viable mycobacteria ([6]; 3.125µM, Day 4, well replicates): 4.75 log10 cfu/ml
intracellular viable mycobacteria ([6]; 3.125µM, Day 7, well replicates): 4.56 log10 cfu/ml
intracellular viable mycobacteria ([6]; 50µM, Day 4, well replicates): 4.39 log10 cfu/ml and 4.51 log10 cfu/ml
intracellular viable mycobacteria ([6]; 50µM, Day 7, well replicates): 3.96 log10 cfu/ml

C=CC(C)(C)n1cc(C[C@@H]2NC(=O)[C@H]([C@H](C)C=C(C)C)NC(=O)[C@H](CC(C)C)N(C)C(=O)[C@H](C(C)C)NC(=O)[C@H]([C@H](OC)c3ccccc3)NC(=O)[C@H](C)NC(=O)[C@H](C[C@@H](C)CO)N(C)C2=O)c2ccccc21 [dCymC] (cyclo([Trp(1-(1,1-Me2-allyl))][NMeLeu(5-OH,4R)]A[Phe(βR-OMe)]V[NMeL][Ala(3R-Me,3-isobutenyl)]))
Kd [1, 13]: 1.1 ± 0.4 nM
Kd ([1]; SPR, individual measurements (source data), read-out: KD ClpC1-NTD): 2.02 nM and 1.58 nM and 1.15 nM (5×) and 0.995 nM and 1.06 nM (3×) and 1.21 nM (2×) and 1.23 nM (3×) and 0.859 nM and 1.01 nM (4×) and 1.13 nM (2×) and 1.16 nM (5×) and 0.401 nM and 0.981 nM and 0.95 nM and 1.03 nM and 0.866 nM and 1.14 nM (2×) and 1.54 nM and 0.99 nM and 1.26 nM and 1.53 nM (2×) and 1.07 nM (3×) and 1.05 nM (3×) and 1.09 nM (4×) and 1.84 nM and 1.39 nM (2×) and 1.44 nM and 1.47 nM (2×) and 0.934 nM and 1.1 nM (3×) and 0.723 nM and 2.22 nM and 0.892 nM and 0.91 nM and 1.75 nM (3×) and 0.741 nM and 0.702 nM and 1.25 nM (2×) and 0.729 nM and 0.721 nM and 1.67 nM and 1.63 nM and 1.37 nM and 1.92 nM and 1.99 nM and 1.17 nM and 1.08 nM (3×) and 0.583 nM and 1.11 nM (4×) and 0.666 nM and 0.718 nM and 0.833 nM and 0.74 nM and 0.783 nM and 0.822 nM and 0.734 nM and 0.671 nM and 1.6 nM and 1.52 nM (2×) and 1.45 nM (3×) and 1.33 nM (3×) and 1.28 nM (2×) and 1.31 nM and 0.952 nM (2×) and 0.854 nM and 1.2 nM (3×) and 0.728 nM and 0.717 nM and 1.59 nM and 1.51 nM and 0.903 nM and 0.9 nM (2×) and 0.985 nM and 1.18 nM and 0.911 nM and 0.904 nM and 1.12 nM and 0.85 nM and 0.908 nM and 1.02 nM and 3.37 nM and 0.912 nM and 0.781 nM and 0.973 nM and 0.999 nM and 0.958 nM and 0.76 nM and 0.886 nM and 0.843 nM and 1.04 nM (4×) and 1.24 nM and 0.917 nM and 0.907 nM and 0.838 nM
Kd [1, 14]: 1.15 nM (5×) and 1.06 nM (3×) and 1.21 nM (2×) and 1.23 nM (3×) and 1.01 nM (4×) and 1.13 nM (2×) and 1.16 nM (5×) and 1.14 nM (2×) and 1.53 nM (2×) and 1.07 nM (3×) and 1.05 nM (3×) and 1.09 nM (4×) and 1.39 nM (2×) and 1.47 nM (2×) and 1.1 nM (3×) and 1.75 nM (3×) and 1.25 nM (2×) and 1.08 nM (3×) and 1.11 nM (4×) and 1.52 nM (2×) and 1.45 nM (3×) and 1.33 nM (3×) and 1.28 nM (2×) and 0.952 nM (2×) and 1.2 nM (3×) and 0.9 nM (2×) and 1.04 nM (4×)
Kd ([1]; SPR, read-out: ClpC1-NTD KD Mean ± SD): 1.1 ± 0.4 nM
efflux ratio (in vitro; Caco-2): 3
Papp B→A (in vitro; Caco-2, CACO permeability PEBA): 2.6 ×10⁻⁶ cm/s
Papp A→B (in vitro; Caco-2, Caco-2 permeability P (A-B)): 1.3 ×10⁻⁶ cm/s
Papp B→A (in vitro; Caco-2, Caco-2 permeability P (B-A)): 3.1 ×10⁻⁶ cm/s
Caco-2 Int. Perm (Caco-2 monolayers): 2.2
Influence of N-methylation on permeability (Caco-2 monolayers): 1.6
Microsomal Stability Mouse QH [2]: 56.100%
Microsomal Stability Mice [2]: 56 %Qh
Microsomal Stability Rat QH [3]: 38.300%
Microsomal Stability Rat [3]: 38 %Qh
Microsomal Stability Human QH [4]: 65.700%
Microsomal Stability Human [4]: 66 %Qh
Hepatocyte Mice [7]: 46 %Qh
Hepatocyte Rat [8]: 55 %Qh
Hepatocyte Stability Rat QH [8]: 55.000%
Hepatocyte Human [9]: 36 %Qh
Hepatocyte Stability Human QH [9]: 38.000%
MIC ([5]; Mycobacterium tuberculosis, M. tuberculosis H37Rv strain, read-out: MIC Mtb H37Rv Mean ± SD): 0.4 ± 0.1 µM (≈ 0.405 µg/mL)
MIC [5, 15]: 0.4 ± 0.1 µM (≈ 0.405 µg/mL)
MIC ([5]; Mycobacterium tuberculosis, individual measurements (source data), read-out: Mtb MIC): 0.39 µM (≈ 0.394 µg/mL)
MIC [5, 16]: 0.39 µM (≈ 0.394 µg/mL)
MIC ([5]; individual measurements (source data), read-out: Mtb MIC): 0.390 µM and 0.600 µM and 0.300 µM
MIC [5, 17]: 0.600 µM and 0.300 µM
MIC (Msm 607; [18]): 2.8 ± 0.4 µM (≈ 2.83 µg/mL)
MIC (Msm 607; [19]): 3.12 µM (≈ 3.16 µg/mL)
Msm 607 MIC (Msm 607): 2.500 µM
DC50 ([10]; Measurement 1-6, read-out: DC50, single measurements): > 100000 nM
DC50 [10, 20]: > 100000 nM
degradation of the His6-tagged ClpC1-NTD substrate ([10]; cell-free, result in words): did not cause any degradation
% Response ([10]; conc. 0.4 µM): 106.994% and 100.864% and 100.549% and 126.212% and 118.079% and 125.703% and 101.139% and 105.018% and 104.304%
ClpC1-NTD peak area ([10]; conc. 0.4 µM): 974818 and 1343173 and 762481 and 700950 and 757234 and 818245 and 783567 and 770572 and 1135273
% Response ([10]; conc. 33.3 µM): 107.525% and 103.829% and 103.089% and 121.205% and 120.164% and 127.4% and 120.436% and 100.085% and 97.8128%
ClpC1-NTD peak area ([10]; conc. 33.3 µM): 1099272 and 1301491 and 948418 and 890861 and 865884 and 830598 and 816002 and 754560 and 1171647
% Response ([10]; conc. 100.0 µM): 99.5642% and 103.437% and 105.517% and 119.388% and 117.765% and 125.04% and 101.258% and 115.542% and 91.4636%
ClpC1-NTD peak area ([10]; conc. 100.0 µM): 1282982 and 1406378 and 1339163 and 984807 and 916165 and 1033433 and 896176 and 856679 and 1974349
DC50 ([11]; Measurement 1-4, read-out: DC50, single measurements): > 100000 nM
DC50 [11, 20]: > 100000 nM
ClpC1 peak area ([12]; 100 µM, Figure 5c, well replicates of 3 experiments): 516046 and 317875 and 398263 and 302242 and 500156 and 40170.6 and 421518 and 401814 and 368135
intracellular degradation of ClpC1 ([12]; Msm #607, 24 h, result in words): did not induce degradation of ClpC1
